Calls of active or inactive are those of the source. No cut-off for these calls is given here.
What was measured:
Cytochrome P450 3A4 = Cytochrome P450 3A4 (Homo sapiens, UniProt P08684); test: Inhibition of recombinant CYP3A4 (unknown origin) at 10 uM measured after 30 mins by luciferase reporter gene assay; format: ADME; settings: recombinant enzyme, 0.5 h
Histamine H3 receptor [1] = biological target: T1, Histamine H3 receptor (Homo sapiens, UniProt Q9Y5N1); test: Displacement of [3H]UR-PI294 from human SP-FLAG-tagged H3R expressed in HEK293T cells measured after 60 to 120 mins by liquid scintillation counting analysis; format: cell-based
Histamine H1 receptor = Histamine H1 receptor (Homo sapiens, UniProt P35367); test: Displacement of [3H]mepyramine from human H1R expressed in Sf9 cell membranes co-expressing RGS4 measured after 60 mins by scintillation counting analysis; set-up: species or system Membrane
Histamine H3 receptor [2] = biological target: T1, Histamine H3 receptor; test: Binding affinity to human H3R
[3] = Effect on spontaneous locomotor activity in Wistar rat model of diet induced obesity at 1 to 10 mg/kg/day, ip administered for 27 days; format: ADME, organism-based; settings: in vivo, 648 h, dose 1-10 mg/kg/day, time 27 day
Rattus norvegicus [4] = test: Anorectic activity in Wistar rat model of diet induced obesity assessed as increase in HDL level at 1 mg/kg/day, ip administered for 28 days measured on day 29 by spectrophotometric method; format: functional, organism-based; settings: time 28.0 day
Rattus norvegicus [5] = test: Anorectic activity in Wistar rat model of diet induced obesity assessed as reduction in plasma glucose level at 1 mg/kg/day, ip administered for 28 days measured on day 29 by spectrophotometric method; format: functional, organism-based; settings: time 28.0 day
Rattus norvegicus [6] = test: Anorectic activity in Wistar rat model of diet induced obesity assessed as reduction in triglyceride level at 1 to 10 mg/kg/day, ip administered for 28 days measured on day 29 by spectrophotometric method; format: functional, organism-based; settings: dose 1-10 mg/kg/day, time 28.0 day
Rattus norvegicus [7] = test: Anorectic activity in Wistar rat model of diet induced obesity assessed as increase in HDL level at 10 mg/kg/day, ip administered for 28 days measured on day 29 by spectrophotometric method; format: functional, organism-based; settings: time 29.0 day
Rattus norvegicus [8] = test: Anorectic activity in Wistar rat model of diet induced obesity assessed as reduction in body weight at 10 mg/kg/day, ip administered for 28 days; format: functional, organism-based; settings: time 28.0 day
Rattus norvegicus [9] = test: Anorectic activity in Wistar rat model of diet induced obesity assessed as reduction in calorie intake at 10 mg/kg/day, ip administered for 28 days; format: functional, organism-based; settings: time 28.0 day
Rattus norvegicus [10] = test: Anorectic activity in Wistar rat model of diet induced obesity assessed as reduction in amount of peritoneal fat at 10 mg/kg/day, ip administered for 28 days; format: functional, organism-based; settings: time 28.0 day
Rattus norvegicus [11] = test: Anorectic activity in Wistar rat model of diet induced obesity assessed as reduction in amount of peritoneal fat at 1 mg/kg/day, ip administered for 28 days; format: functional, organism-based; settings: time 28.0 day
Rattus norvegicus [12] = test: Anorectic activity in Wistar rat model of diet induced obesity assessed as reduction in body weight at 1 mg/kg/day, ip administered for 28 days; format: functional, organism-based; settings: time 28.0 day
Rattus norvegicus [13] = test: Anorectic activity in Wistar rat model of diet induced obesity assessed as reduction in calorie intake at 1 mg/kg/day, ip administered for 28 days; format: functional, organism-based; settings: time 28.0 day
Rattus norvegicus [14] = test: Anorectic activity in Wistar rat model of diet induced obesity assessed as reduction in plasma glucose level at 10 mg/kg/day, ip administered for 28 days measured on day 29 by spectrophotometric method; format: functional, organism-based; settings: time 29.0 day
Rattus norvegicus [15] = test: Anorectic activity in Wistar rat model of diet induced obesity assessed as reduction in total cholesterol level at 10 mg/kg/day, ip administered for 28 days measured on day 29 by spectrophotometric method; format: functional, organism-based; settings: time 29.0 day
Rattus norvegicus [16] = test: Anorectic activity in Wistar rat model of diet induced obesity assessed as reduction in total cholesterol level at 1 mg/kg/day, ip administered for 28 days measured on day 29 by spectrophotometric method; format: functional, organism-based; settings: time 28.0 day
[17] = Effect on spontaneous locomotor activity in Wistar rat model of diet induced obesity at 1 mg/kg/day, ip administered for 27 days; format: ADME, organism-based; settings: in vivo, 648 h, time 27 day
Histamine H4 receptor = Histamine H4 receptor (Homo sapiens, UniProt Q9H3N8); test: Binding affinity to human H4R
Chain of Histamine H4 receptor (Q9H3N8 whole entry): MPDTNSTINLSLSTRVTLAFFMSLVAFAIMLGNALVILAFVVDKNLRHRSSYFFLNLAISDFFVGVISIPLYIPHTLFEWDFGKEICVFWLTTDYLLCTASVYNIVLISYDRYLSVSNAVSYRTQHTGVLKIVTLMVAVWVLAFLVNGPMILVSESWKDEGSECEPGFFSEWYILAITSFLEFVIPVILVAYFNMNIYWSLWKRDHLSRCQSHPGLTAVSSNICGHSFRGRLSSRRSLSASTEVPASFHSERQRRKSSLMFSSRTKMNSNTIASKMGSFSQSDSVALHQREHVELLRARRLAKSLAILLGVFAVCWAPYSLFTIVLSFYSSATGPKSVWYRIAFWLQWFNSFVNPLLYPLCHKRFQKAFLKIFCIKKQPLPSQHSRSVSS

Chain of Histamine H1 receptor (P35367 whole entry): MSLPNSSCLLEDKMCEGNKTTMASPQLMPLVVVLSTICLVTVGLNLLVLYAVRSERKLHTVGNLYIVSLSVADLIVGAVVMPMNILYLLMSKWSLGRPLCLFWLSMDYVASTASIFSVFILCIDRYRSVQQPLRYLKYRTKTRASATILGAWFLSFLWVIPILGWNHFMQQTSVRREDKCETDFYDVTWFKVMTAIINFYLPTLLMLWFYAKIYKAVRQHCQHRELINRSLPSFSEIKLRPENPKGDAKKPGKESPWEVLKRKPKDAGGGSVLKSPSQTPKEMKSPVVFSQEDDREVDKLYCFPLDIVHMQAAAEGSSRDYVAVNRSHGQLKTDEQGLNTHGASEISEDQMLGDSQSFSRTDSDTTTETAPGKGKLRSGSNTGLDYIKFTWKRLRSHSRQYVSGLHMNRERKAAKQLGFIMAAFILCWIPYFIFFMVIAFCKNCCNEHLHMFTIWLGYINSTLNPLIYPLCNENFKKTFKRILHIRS
T1 sequence (Q9Y5N1 whole entry): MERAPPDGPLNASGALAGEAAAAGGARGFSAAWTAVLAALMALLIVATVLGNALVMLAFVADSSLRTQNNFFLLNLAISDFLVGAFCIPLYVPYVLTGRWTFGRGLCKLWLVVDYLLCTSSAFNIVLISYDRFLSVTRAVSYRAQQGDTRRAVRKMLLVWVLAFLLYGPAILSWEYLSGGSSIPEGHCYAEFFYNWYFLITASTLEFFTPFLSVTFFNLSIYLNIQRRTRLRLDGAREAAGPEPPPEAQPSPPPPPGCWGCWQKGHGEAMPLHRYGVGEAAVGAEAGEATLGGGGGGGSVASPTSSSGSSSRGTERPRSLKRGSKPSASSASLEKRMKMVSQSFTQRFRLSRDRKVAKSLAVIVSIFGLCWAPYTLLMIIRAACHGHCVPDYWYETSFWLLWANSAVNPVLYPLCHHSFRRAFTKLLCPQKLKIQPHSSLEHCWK
Chain of Cytochrome P450 3A4 (P08684 whole entry): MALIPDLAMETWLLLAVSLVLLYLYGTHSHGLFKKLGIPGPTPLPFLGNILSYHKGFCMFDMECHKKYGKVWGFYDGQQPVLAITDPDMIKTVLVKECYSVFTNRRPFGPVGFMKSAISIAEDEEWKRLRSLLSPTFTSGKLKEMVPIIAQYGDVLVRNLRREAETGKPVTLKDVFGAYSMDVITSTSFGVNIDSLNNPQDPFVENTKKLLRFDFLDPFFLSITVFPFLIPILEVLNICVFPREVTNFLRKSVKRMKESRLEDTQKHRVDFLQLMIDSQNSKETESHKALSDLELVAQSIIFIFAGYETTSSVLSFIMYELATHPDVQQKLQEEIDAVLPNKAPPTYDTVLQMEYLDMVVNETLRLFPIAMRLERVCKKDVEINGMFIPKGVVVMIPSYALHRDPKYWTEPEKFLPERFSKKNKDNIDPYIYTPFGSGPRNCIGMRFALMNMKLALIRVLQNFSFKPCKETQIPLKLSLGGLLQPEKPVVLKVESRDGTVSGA

## O=C(c1ccc(OCCCc2cnc[nH]2)cc1)C1CC1 [CIPROXIFAN]
Cytochrome P450 3A4
  inhibition (INH): Active

## c1ccc2cc(OCCCN3CCN(c4ccncc4)CC3)ccc2c1
Cytochrome P450 3A4
  inhibition (INH): Active
Histamine H3 receptor [1]
  Ki: 67.2 nM
Histamine H1 receptor
  Ki: 7420 nM

## O=C(c1ccc(OCCCN2CCN(c3ccncc3)CC2)cc1)C1CC1
Cytochrome P450 3A4
  inhibition (INH): Active
Histamine H3 receptor [1]
  Ki: 3.17 nM
Histamine H1 receptor
  Ki: > 10000 nM

## c1ccc(Cc2ccc(OCCCN3CCN(c4ccncc4)CC3)cc2)cc1
Cytochrome P450 3A4
  inhibition (INH): Active
Histamine H3 receptor [1]
  Ki: 17.6 nM
Histamine H1 receptor
  Ki: 4240 nM

## O=C(c1ccc(Cl)cc1)c1ccc(OCCCN2CCN(c3ccncc3)CC2)cc1
Cytochrome P450 3A4
  inhibition (INH): Active
Histamine H3 receptor [1]
  Ki: 23 nM
Histamine H1 receptor
  Ki: 6860 nM

## Clc1cccc(-c2ccc(OCCCN3CCN(c4ccncc4)CC3)cc2)c1
Cytochrome P450 3A4
  inhibition (INH): Active
Histamine H3 receptor [1]
  Ki: 109 nM
Histamine H1 receptor
  Ki: 1990 nM

## O=C(c1ccc(OCCCN2CCC(c3ccncc3)CC2)cc1)C1CC1
Cytochrome P450 3A4
  inhibition (INH): Active
Histamine H3 receptor [1]
  Ki: 7.7 nM
Histamine H1 receptor
  Ki: > 10000 nM

## CN(C)[C@@H]1CCN(CCCOc2ccc(-c3ccc(C#N)cc3)cc2F)C1
Histamine H3 receptor [2]
  Ki: 3.98 nM

## N#Cc1ccc(-c2ccc(OCCCN3CCN(c4ccncc4)CC3)cc2)cc1
[3]
  Activity: Non-Toxic
Rattus norvegicus [4]
  Activity: Active
Rattus norvegicus [5]
  Activity: inactive
Rattus norvegicus [6]
  Activity: Active
Rattus norvegicus [7]
  Activity: Active
Cytochrome P450 3A4
  inhibition (INH): Active
Histamine H3 receptor [1]
  Ki: 7.86 nM
Histamine H1 receptor
  Ki: 2900 nM
Rattus norvegicus [8]
  Activity: Active
Rattus norvegicus [9]
  Activity: Active
Rattus norvegicus [10]
  Activity: Active
Rattus norvegicus [11]
  Activity: Active
Rattus norvegicus [12]
  Activity: Active
Rattus norvegicus [13]
  Activity: Active
Rattus norvegicus [14]
  Activity: Active
Rattus norvegicus [15]
  Activity: Active

## Fc1ccc(-c2ccc(OCCCN3CCN(c4ccncc4)CC3)cc2)cc1
Cytochrome P450 3A4
  inhibition (INH): Active
Histamine H3 receptor [1]
  Ki: 60.7 nM
Histamine H1 receptor
  Ki: 3690 nM

## Cc1c(C(=O)NN2CCCCC2)nn(-c2ccc(Cl)cc2Cl)c1-c1ccc(Cl)cc1 [RIMONABANT]
Rattus norvegicus [16]
  Activity: Active
Rattus norvegicus [4]
  Activity: Active
Rattus norvegicus [11]
  Activity: Active
[17]
  Activity: Non-Toxic

## O=C(c1ccc(F)cc1)c1ccc(OCCCN2CCN(c3ccncc3)CC2)cc1
Cytochrome P450 3A4
  inhibition (INH): Active
Histamine H3 receptor [1]
  Ki: 5.84 nM
Histamine H1 receptor
  Ki: > 10000 nM

## Clc1ccc(CCCOCCCN2CCCCC2)cc1 [PITOLISANT]
Histamine H4 receptor
  Ki: > 100000 nM

## CN(C)[C@@H]1CCN(CCCOc2ccc(-c3ccc(C#N)cc3)cc2)C1
Histamine H3 receptor [2]
  Ki: 2 nM

## Clc1ccc(-c2ccc(OCCCN3CCN(c4ccncc4)CC3)cc2)cc1
Cytochrome P450 3A4
  inhibition (INH): Active
Histamine H3 receptor [1]
  Ki: 140 nM
Histamine H1 receptor
  Ki: 4090 nM

## c1ccc(Nc2ccc(OCCCN3CCN(c4ccncc4)CC3)cc2)cc1
Cytochrome P450 3A4
  inhibition (INH): Active
Histamine H3 receptor [1]
  Ki: 8.43 nM
Histamine H1 receptor
  Ki: 4220 nM

## c1ccc(Oc2ccc(OCCCN3CCN(c4ccncc4)CC3)cc2)cc1
Cytochrome P450 3A4
  inhibition (INH): Active
Histamine H3 receptor [1]
  Ki: 20.3 nM
Histamine H1 receptor
  Ki: 4570 nM

From ChEMBL document CHEMBL4732109, “Structural modifications in the distal, regulatory region of histamine H receptor antagonists leading to the identification of a potent anti-obesity agent” (Eur J Med Chem, 2021)
